Results on six molecules are retold here after article PMC3610893, “The CouPSTU and TarPQM Transporters in Rhodopseudomonas palustris: Redundant, Promiscuous Uptake Systems for Lignin-Derived Aromatic Substrates” (PLoS ONE, 2013).

Experiment [1] deals with T1, TarP (RPA1782) periplasmic binding-protein (Rhodopseudomonas palustris, UniProt Q6N8X0).
T1 sequence (Q6N8X0 20-336): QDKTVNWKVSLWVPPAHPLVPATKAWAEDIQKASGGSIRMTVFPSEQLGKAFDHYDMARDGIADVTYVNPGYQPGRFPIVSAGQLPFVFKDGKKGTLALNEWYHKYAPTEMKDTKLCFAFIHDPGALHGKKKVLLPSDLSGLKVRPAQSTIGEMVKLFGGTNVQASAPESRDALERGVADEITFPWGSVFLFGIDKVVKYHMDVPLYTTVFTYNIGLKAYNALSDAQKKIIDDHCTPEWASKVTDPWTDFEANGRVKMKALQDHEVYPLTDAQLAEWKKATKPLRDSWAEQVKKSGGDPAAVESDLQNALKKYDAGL
Description: Intrinsic tryptophan fluorescence spectroscopy / ligand titrations with TarP (RPA1782). The settings on record: for Quench of intrinsic tryptophan fluorescence of TarP (RPA1782): equimolar protein and ligand (0.2 µM), excitation 280 nm. The protocol: (§1) Pure protein was unfolded by dialysis against 1 L of 6 M urea for 16 hours at 4°C. Refolding was effected by dialysis against 2 L of refolding buffer (50 mM Tris-HCl pH 7.2 plus 100 mM NaCl) for 8 hours, the buffer being changed every 2 hours with a final overnight dialysis. Once removed from the dialysis tubing, protein was centrifuged (13,000×g, 10 mins, 4°C) to remove any precipitated misfolded protein.
(§2) Changes in the UV fluorescence of intrinsic tryptophan residues in RPA1782 and RPA1789 were measured using a Cary Eclipse fluorimeter (Varian Ltd, UK) in 10 mM Tris-HCl buffer pH 7.4 at 30°C in a 3 ml volume. Excitation of samples was at 280 nm (5 nm slit width) and emission was recorded at 300–400 nm (20 nm slit width). Ligand titrations were performed with 0.2 µM protein with λex 280 nm λem 340 nm using 5 nm excitation and 20 nm emission slit widths respectively. Except where indicated, data from three independent titrations was used to calculate K d values, by fitting to the quadratic equation for tight binding as previously described.

The target of experiment [2] is T2, CouP (RPA1789) periplasmic binding-protein (Rhodopseudomonas palustris, UniProt Q6N8W4).
T2 sequence (Q6N8W4 27-385): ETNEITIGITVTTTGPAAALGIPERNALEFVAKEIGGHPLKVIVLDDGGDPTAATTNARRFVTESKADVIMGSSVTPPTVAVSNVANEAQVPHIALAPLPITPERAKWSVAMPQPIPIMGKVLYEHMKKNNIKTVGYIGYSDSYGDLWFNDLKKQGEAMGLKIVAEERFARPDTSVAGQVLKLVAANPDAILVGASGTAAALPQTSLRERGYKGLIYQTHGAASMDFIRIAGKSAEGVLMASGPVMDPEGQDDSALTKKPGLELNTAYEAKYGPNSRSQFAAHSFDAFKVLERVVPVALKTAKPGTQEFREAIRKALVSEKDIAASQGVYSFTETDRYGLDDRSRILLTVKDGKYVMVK
The experiment can be described thus: Intrinsic tryptophan fluorescence spectroscopy / ligand titrations with CouP (RPA1789). The settings on record: for Quench of intrinsic tryptophan fluorescence of CouP (RPA1789): 0.2 µM ligand added to 0.2 µM protein (equimolar), excitation 280 nm; for K d with CouP that was not urea treated, relative to refolded protein: fluorescence titrations, CouP not urea treated (endogenous ligand not removed), fold higher. Here is the method:
as §1, §2

In another experiment the target is T3, CouP (RPA1789) (Rhodopseudomonas palustris, UniProt Q6N8W4).
T3 sequence (Q6N8W4 27-385): T2 sequence (Q6N8W4 27-385)
Description: Isothermal titration calorimetry (ITC) with RPA1789. In kind it is binding. Here is the method: ITC experiments were carried out using a VP-ITC calorimeter (Microcal, Inc., UK). Ligand stock solutions for ITC experiments were made up in aliquots of the final refolding buffer that RPA1789 was dialysed against (50 mM Tris-HCl pH 7.2 plus 100 mM NaCl) and all reactions used the same buffer. The reaction cell contained 1.8 ml of 50 µM protein in refolding buffer. Ligand titrations were carried out at 20°C (except caffeate which was carried out at 25°C) by the injection of 20×15 µl aliquots of 400 µM ligand, from a 300 µl syringe, for a duration of 35 seconds at 7 minute intervals. After taking into account the baseline and any heats of dilution by the ligand, all titrations were integrated using the ORIGIN software programme associated with the calorimeter then exported to in-house numerical routines for data fitting to the Weissman isotherm.

A further experiment concerns the target RPA1789. Further details: method as in PMID 22577139. The settings on record: read-out: K d for RPA1789 by ITC (literature); cited from earlier work. In general terms: Isothermal titration calorimetry measures the heat released or taken up as one component is titrated into another.
In experiment [3] the target is T2, CouP (RPA1789) periplasmic binding-protein. The experiment can be described thus: Intrinsic tryptophan fluorescence spectroscopy / ligand titrations with CouP (RPA1789). The settings on record: CouP not urea treated (endogenous ligand not removed).
Setting [4] is: ITC, 20°C, 50 µM protein, 50 mM Tris-HCl pH 7.2 plus 100 mM NaCl.

“And” between values parts separate entries of the source, which are not always exact repeats. Identical values can stand only once. Bounds are passed on as bounds.

Take `O=C(O)c1ccc(O)cc1` [4-hydroxybenzoate]: the “Binding to TarP (RPA1782), fluorescence screen” value in experiment [1] (equimolar protein and ligand) was “no evidence of binding”. For the same molecule, the “Quench of intrinsic tryptophan fluorescence of CouP (RPA1789)” value (from here on “Quench … (RPA1789)”) in experiment [2] is “did not produce any fluorescence change”. The “Binding to CouP (RPA1789)” value in experiment [2] (fluorescence) is listed as “no evidence of binding”.

On to `O=C(O)/C=C/c1ccc(O)c(O)c1` [Caffeate, (E)-3-(3,4-dihydroxyphenyl)-2-propenoic acid], for which, in experiment [1], the Kd was determined as 14 ± 7 nM and the “Quench of intrinsic tryptophan fluorescence of TarP (RPA1782)” value (“Quench … (RPA1782)” for short) was ~5%. In experiment [2], the Kd was found to be 2.4 ± 0.8 nM; the “Quench … (RPA1789)” value is listed as 25–50%; the “K d with CouP that was not urea treated, relative to refolded protein” value is recorded as 200-1,000 fold. The molecule also registered a Kd on CouP (RPA1789) of 27 ± 0.07 nM. On CouP (RPA1789) (setting [4]), the “ΔH (binding enthalpy)” value is given as “negligible enthalpy of binding”. Further, on CouP (RPA1789) (ITC, 25°C), the “n (ligand binding stoichiometry)” value worked out at 0.776±0.005, the “ΔH (binding enthalpy)” value turned out to be 1.78 ± 0.05 kcal/mol, the “ΔHdil (heats of dilution of the ligands)” value was -0.28 kcal/mol and the “ΔS (binding entropy)” value is 40 cal mol^−1 K^−1.

In the case of `O=C(O)/C=C/c1ccc(O)cc1` [Coumarate, (E)-3-(4-hydroxyphenyl)-2-propenoic acid], in experiment [1], the Kd came to 8 ± 5 nM and the “Quench … (RPA1782)” value was ~5%. Besides, in experiment [2], the Kd was 2.6 ± 0.09 nM; the “Quench … (RPA1789)” value is ~30% and 25–50%; the “K d with CouP that was not urea treated, relative to refolded protein” value is given as 200-1,000 fold. Besides, on CouP (RPA1789) (ITC, 20°C), the “n (ligand binding stoichiometry)” value is recorded as 0.993±0.003, the “ΔHdil (heats of dilution of the ligands)” value is -0.26 kcal/mol and the “ΔS (binding entropy)” value stood at 46 cal mol^−1 K^−1. For the same molecule, at CouP (RPA1789) (setting [4]), the “ΔH (binding enthalpy)” value amounted to 3.23 ± 0.03 kcal/mol. In addition, the Kd at RPA1789 was 8600 nM.

On to `COc1cc(C=CC(=O)O)cc(OC)c1O` [sinapate, 3-(4-hydroxy-3,5-dimethoxyphenyl)-2-propenoic acid], for which, in experiment [2], the “Quench … (RPA1789)” value was ~5%.

For the molecule `COc1cc(/C=C/C(=O)O)ccc1O` [Ferulate, (E)-3-(4-hydroxy-3-methoxyphenyl)-2-propenoic acid], in experiment [1], the Kd is 15 ± 3 nM and the “Quench … (RPA1782)” value is given as ~5%. Further, in experiment [2], the Kd was 15 ± 6 nM; the “Quench … (RPA1789)” value is reported as 25–50%; the “K d with CouP that was not urea treated, relative to refolded protein” value is on record as 200-1,000 fold. For the same molecule, on CouP (RPA1789) (ITC, 20°C), the “n (ligand binding stoichiometry)” value is 0.803±0.002, the “ΔHdil (heats of dilution of the ligands)” value is -0.24 kcal/mol and the “ΔS (binding entropy)” value came out at 43 cal mol^−1 K^−1. The “ΔH (binding enthalpy)” value on CouP (RPA1789) (setting [4]) came out at 3.18 ± 0.03 kcal/mol.

On to `O=C(O)/C=C/c1ccccc1` [Cinnamate, (E)-3-phenyl-2-propenoic acid], for which, in experiment [1], the Kd is 50 nM and 33 nM; the “Quench … (RPA1782)” value was ~5%. Also, the “Binding to CouP that was not urea treated” value in experiment [3] is given as “no evidence for cinnamate binding”. Also, in experiment [2], the Kd came to 88 ± 8 nM and the “Quench … (RPA1789)” value is on record as 25–50%. In addition, at CouP (RPA1789) (ITC, 20°C), the “n (ligand binding stoichiometry)” value was 0.757±0.003, the “ΔHdil (heats of dilution of the ligands)” value is -0.43 kcal/mol and the “ΔS (binding entropy)” value is 56 cal mol^−1 K^−1. Besides, the “ΔH (binding enthalpy)” value at CouP (RPA1789) (setting [4]) was determined as 7.45 ± 0.08 kcal/mol. Moreover, at CouP (RPA1789) (ITC, CouP, compared with ligands bearing the 4-OH group), the “ΔHbind (less favourable enthalpy of binding)” value is > 4 kcal/mol.
